Data on one compound can be found in patent US20180125898A1, “MARINE LECITHIN PREPARATIONS WITH ENHANCED OXIDATION RESISTANCE” (AKER BIOMARINE ANTARCTIC AS, priority 2014, published 2018).

The data set is described as follows: Gastric model: incubation in simulated gastric fluid (SGF), LOOH (FOX assay) and MDA, oxidation resistance score. The format is physicochemical. Particulars: conventional krill oil with high TMAO, three concentrations of Astaxanthin (increased more than 10 fold), 180 minutes. How it is done: Hydroperoxide level was tested by FOX analysis. Measurements were conducted at 562 nm, the absorbance of the Ferric-Xylenol Orange Complex. (Gay 1999).
Malondialdehyde (MDA) level was tested by modified TBARS test. The thiobarbituric acid-MDA adduct was quantified by HPLC (Fenaille 2001) or spectrophotometer.
Marine lecithin preparations according to the invention and conventional marine lecithins were incubated while shaken in simulated gastric fluid (SGF) which contains 2 mg/ml NaCl, 3.2 mg/ml HCl 37%, and 7 mg/ml Pepsine and with 200 μM Ascorbic acid and 50 μM FeCl3 as oxidation catalysts, at 37° C. for 180 min. The final concentration of the oils was 10 mg/ml. Peroxidation markers hydroperoxide (LOOH, by Ferric-Xylenol Orange Complex—FOX assay) and malondialdehyde (MDA-TBA2 HPLC analysis) were analyzed following 180 minutes of incubation in the gastric model.
In order to rank the oils according to their resistance to oxidation in gastric model, a score scale was developed. […]
Conventional krill oil, containing high concentration of TMAO, was enriched with three concentrations of Astaxanthin and incubated in simulated gastric fluid (SGF) as described in Example 3. Hydroperoxide as peroxidation marker (LOOH, by Ferric-Xylenol Orange Complex—FOX assay—see method above) was analyzed following 180 minutes. […]

Each structure is given as a SMILES string.

As for `CC1=C(/C=C/C(C)=C/C=C/C(C)=C/C=C/C=C(C)/C=C/C=C(C)/C=C/C2=C(C)C(=O)[C@@H](O)CC2(C)C)C(C)(C)C[C@H](O)C1=O` [Astaxanthin], the “change in LOOH levels by Astaxanthin enrichment” value is “only minimal change in LOOH levels”.
